Assay results from patent publication US8933195B2, “Histone deacetylase inhibitors and synthetic method thereof and use thereof in manufacture of medicaments” (Nanjing Yoko Biomedical R & D Ltd., priority 2011, dated 2015).
Read-outs that look alike come from different tables or passages of the source.

Legend:
[1] = tested on: BGC-823 (human gastric cancer cells); assay: MTT cancer cell growth inhibition; format: cell-based; conditions: 72 h, read-out: GI50 BGC823
From the text: (§1) 1. Experimental principles: the inhibition of cancer cell growth with compounds is detected by an MTT method. The principle of the MTT method is as follows: yellow thiazolyl blue may penetrate through cell membranes and enter into cells, succinate dehydrogenase in living cell mitochondria may reduce exogenous MTT into water-insoluble ianthinus acicular Formazan crystals which deposit in the cells, the crystals can be dissolved with dimethyl sulfoxide (DMSO), the optical density of the crystals is detected with an enzyme-linked immunometric meter at the wavelength of 490 nm/570 nm, and the number of cells can be indirectly reflected.
(§2) 2. Experimental materials: the used cancer cell lines are Hela (human cervical cancer cells), MCF-7 (human breast cancer cells), BGC-823 (human gastric cancer cells), A549 (human lung cancer cells), HT1080 (human fibrosarcoma cells), A431 (human epidermal squamous cell carcinoma cells), HUVEC (human umbilical vein endothelial cells), DU145 (human prostate cancer cells), K562 (human leukemia cells), U937 (human leukemia cells), Pac-1 (human pancreatic cancer cells), and MOLT-4 (human acute lymphoblastic leukemia cells), which are cultured with a DMEM+10% FBS culture medium or a 1640+10% FBS culture medium, respectively.
(§3) Experimental groups: 190 μl cell suspension+10 μl pharmaceuticals in different concentrations (the final concentration is 10^−5-10^−10M)
(§4) Negative control group: 190 μl cell suspension+10 μl 2% DMSO (the final concentration of DMSO is 0.1%)
(§5) a) Cells are inoculated on a 96-pore plate, with 1500 cells and 190 μl for each hole, and cultured overnight in a 5% CO2 incubator at 37.
(§6) b) 10 μl of different pharmaceuticals is added into each hole the next day, with the final concentration of the pharmaceuticals of 10^−5-10^−10M and three parallel holes, and incubated for 72 h in a 5% CO2 incubator at 37.
(§7) c) 20 μl of 5 mg/mL MTT is added into each hole, and incubated for 4 h in a 5% CO2 incubator at 37.
(§8) d) Supernatant is removed. 100 μl of DMSO is added into each hole and vibrated.
(§9) e) The reading is 570 nm. The cell survival rate is calculated.

[2] = tested on: MOLT-4 (human acute lymphoblastic leukemia cells); assay: MTT cancer cell growth inhibition; format: cell-based; conditions: 72 h
From the text: as §1, §2, §3, §4, §5, §6, §7, §8, §9

[3] = tested on: DU145 (human prostate cancer cells); assay: MTT cancer cell growth inhibition; format: cell-based; conditions: DU-145, 72 h
From the text: as §1, §2, §3, §4, §5, §6, §7, §8, §9

[4] = tested on: U937 (human leukemia cells); assay: MTT cancer cell growth inhibition; format: cell-based; conditions: U-937, 72 h
From the text: as §1, §2, §3, §4, §5, §6, §7, §8, §9

[5] = tested on: HT1080 (human fibrosarcoma cells); assay: MTT cancer cell growth inhibition; format: cell-based; conditions: HT-1080, 72 h
From the text: as §1, §2, §3, §4, §5, §6, §7, §8, §9

[6] = tested on: Hela (human cervical cancer cells); assay: MTT cancer cell growth inhibition; format: cell-based; conditions: 72 h
From the text: as §1, §2, §3, §4, §5, §6, §7, §8, §9

[7] = tested on: MCF-7 (human breast cancer cells); assay: MTT cancer cell growth inhibition; format: cell-based; conditions: MCF7, 72 h
From the text: as §1, §2, §3, §4, §5, §6, §7, §8, §9

[8] = tested on: PANC-1; assay: MTT cancer cell growth inhibition; format: cell-based; conditions: Homo sapiens, 72 h
From the text: as §1, §2, §3, §4, §5, §6, §7, §8, §9

[9] = tested on: A549 (human lung cancer cells); assay: MTT cancer cell growth inhibition; format: cell-based; conditions: 72 h
From the text: as §1, §2, §3, §4, §5, §6, §7, §8, §9

[10] = tested on: Incap; assay: MTT cancer cell growth inhibition; format: cell-based; conditions: 72 h
[11] = molecular target: T1, HDAC7 (Homo sapiens, UniProt Q8WUI4); assay: Measurement of biochemical activities of HDAC (fluorescently-labeled acetylated lysine substrate)
T1 sequence (Q8WUI4 1-952): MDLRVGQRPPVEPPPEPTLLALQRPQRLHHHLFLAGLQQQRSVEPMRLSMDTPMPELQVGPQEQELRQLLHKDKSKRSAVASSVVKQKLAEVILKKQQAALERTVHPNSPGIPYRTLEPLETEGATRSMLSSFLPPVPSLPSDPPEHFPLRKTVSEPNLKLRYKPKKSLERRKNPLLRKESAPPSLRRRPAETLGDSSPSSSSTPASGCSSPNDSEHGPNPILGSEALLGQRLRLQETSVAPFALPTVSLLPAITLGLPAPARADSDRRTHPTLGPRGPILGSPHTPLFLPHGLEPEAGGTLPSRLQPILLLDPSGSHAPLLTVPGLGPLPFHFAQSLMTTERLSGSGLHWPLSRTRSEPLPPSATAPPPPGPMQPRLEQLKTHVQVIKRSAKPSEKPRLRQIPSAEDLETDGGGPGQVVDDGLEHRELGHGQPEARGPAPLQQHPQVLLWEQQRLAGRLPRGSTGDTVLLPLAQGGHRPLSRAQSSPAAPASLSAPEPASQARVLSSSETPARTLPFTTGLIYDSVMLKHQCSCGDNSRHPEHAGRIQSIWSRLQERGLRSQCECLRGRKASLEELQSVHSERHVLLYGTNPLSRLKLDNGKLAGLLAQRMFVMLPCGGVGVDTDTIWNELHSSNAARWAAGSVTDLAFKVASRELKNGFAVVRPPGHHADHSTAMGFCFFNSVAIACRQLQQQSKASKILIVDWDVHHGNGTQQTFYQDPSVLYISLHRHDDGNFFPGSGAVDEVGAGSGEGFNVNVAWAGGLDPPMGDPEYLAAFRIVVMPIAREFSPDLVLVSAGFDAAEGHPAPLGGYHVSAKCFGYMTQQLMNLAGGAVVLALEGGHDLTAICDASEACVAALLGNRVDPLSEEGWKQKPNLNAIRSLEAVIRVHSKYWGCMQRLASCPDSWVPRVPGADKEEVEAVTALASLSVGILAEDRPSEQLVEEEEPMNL
Procedure: (§10) 1. Measurement principles: the measurement of biochemical activities of compounds is determined according to the degree of the compounds inhibiting the deacylation of HDAC enzyme. After the fluorescently-labeled substrate containing acetylated lysine side chain reacts with the HDAC enzyme, the fluorogenic substrate is deacetylated. After the deacetylated fluorescently-labeled substrate is cracked by the enzyme, a fluorescent substance is released. The fluorescent substance generates emitting light of 460 nm under the excitation of light of 360 nm.
(§11) 2. Detailed steps: the substrate of HDAC is diluted to […] (the reaction concentration is […]) with a reaction buffer. HDAC enzyme is diluted to a proper concentration. The compounds to be detected in different concentrations are added. The mixture reacts for 30 min at 37. Then the developer with the same volume and twice concentration of the substrate is added into the mixture. The mixture is incubated for 15 min at room temperature. Finally, the reading is measured with a micro plate scanner. The excitation light is 360 nm, the emitting light is 460 nm, and the data is processed with Prime 4 software.

[12] = molecular target: HDAC1 (Homo sapiens, UniProt Q13547); assay: as above
Sequence of HDAC1 (Q13547 whole entry, species assumed): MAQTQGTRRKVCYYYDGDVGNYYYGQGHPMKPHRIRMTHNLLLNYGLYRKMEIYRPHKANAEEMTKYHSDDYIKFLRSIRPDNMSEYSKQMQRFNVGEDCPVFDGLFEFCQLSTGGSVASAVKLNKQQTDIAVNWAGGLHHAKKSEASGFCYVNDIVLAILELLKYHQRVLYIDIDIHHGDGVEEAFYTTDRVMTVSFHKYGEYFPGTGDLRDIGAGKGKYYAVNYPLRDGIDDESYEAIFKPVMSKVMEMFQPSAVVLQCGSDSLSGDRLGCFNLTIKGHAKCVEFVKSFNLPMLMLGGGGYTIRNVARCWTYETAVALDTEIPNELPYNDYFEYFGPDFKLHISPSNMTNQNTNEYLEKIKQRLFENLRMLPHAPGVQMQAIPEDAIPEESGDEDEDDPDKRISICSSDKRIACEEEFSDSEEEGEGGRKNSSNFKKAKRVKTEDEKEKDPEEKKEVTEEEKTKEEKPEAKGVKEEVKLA
Procedure: as §10, §11

Row | Compound | GI50 [1] [nM] | GI50 [2] [nM] | GI50 [3] [nM] | GI50 [4] [nM] | GI50 [5] [nM] | GI50 [6] [nM] | GI50 [7] [nM] | GI50 [8] [nM] | GI50 [9] [nM] | GI50 [10] [nM] | IC50 HDAC7 [11] | IC50 ([12]; read-out: IC50 HDAC1) [nM] | IC50 [12] [nM]
1 | C/C=C1\NC(=O)c2csc(n2)CNC(=O)C[C@@H](/C=C/CCS)OC(=O)[C@H](C(C)C)NC1=O [Compound 6-1] | 360 | 650 | 34 | 5 | 50 | 600 | 59 | 230 | 100 | 42 | no activity | < 100 | 
2 | C/C=C1\NC(=O)c2cccc(c2)CNC(=O)C[C@@H](/C=C/CCSC(=O)CCCCCCC)OC(=O)[C@H](C(C)C)NC1=O [Compound 2-6] | 56200 | 64500 | 560 | 12600 | 12000 | 500 | 650 | 45000 | 4200 | 11600 | no activity | < 10000 | 
3 | C/C=C1\NC(=O)c2ccnc(c2)CNC(=O)C[C@@H](/C=C/CCSC(=O)CCCCCCC)OC(=O)[C@H](C(C)C)NC1=O [Compound 2-7] | 100 | 2100 | 6 | 9 | 80 | 100 | 90 | 800 | 90 | 650 | no activity | < 10000 | 
4 | C/C=C1\NC(=O)c2csc(n2)[C@H](C(C)C)NC(=O)C[C@@H](/C=C/CCSC(=O)CCCCCCC)OC(=O)[C@H](C(C)C)NC1=O [Compound 4-1] | 230 | 4020 | 1650 | 1560 | 850 | 260 | 130 | 1340 | 540 | 1030 | no activity |  | < 10000
5 | C/C=C1\NC(=O)C2C=NC(=N2)CNC(=O)C[C@@H](/C=C/CCSC(=O)CCCCCCC)OC(=O)[C@H](C(C)C)NC1=O (stereo partly drawn) [Compound 2-4] | 2600 | 900 | 6400 | 18600 | 1600 | 23000 | 52600 | 4200 | 4500 | 85200 | no activity | < 10000 | 
6 | CCCCCCCC(=O)SCC/C=C/[C@@H]1CC(=O)NCc2nc(cs2)C(=O)N[C@H](CC)C(=O)N[C@@H](C(C)C)C(=O)O1 [Compound 3-2] | 1020 | 1060 | 1060 | 5260 | 1350 | 600 | 100 | 1230 | 360 | 1420 | no activity | < 10000 | 
7 | C/C=C1\NC(=O)c2csc(n2)CNC(=O)C[C@@H](/C=C/CCSC(=O)CCCCCCC)OC(=O)[C@H](C(C)C)N(C)C1=O [Compound 5-2] | 1300 | 10300 | 6410 | 20 | 1050 | 350 | 690 | 21400 | 240 | 5030 | no activity | < 10000 | 
8 | C/C=C1\NC(=O)c2csc(n2)[C@H](C)NC(=O)C[C@@H](/C=C/CCSC(=O)CCCCCCC)OC(=O)[C@H](C(C)C)NC1=O [Compound 4-2] | 2120 | 2000 | 4020 | 5010 | 30 | 1230 | 150 | 1030 | 25100 | 1230 | no activity | < 100 | 
9 | C/C=C1\NC(=O)c2csc(n2)CNC(=O)C[C@@H](/C=C/CCSC(=O)CCCCCCC)OC(=O)[C@@H](C)NC1=O [Compound 1-5] | 100 | 1000 | 100 | 100 | 1000 | 2000 | 800 | 3000 | 600 | 600 | no activity | < 10000 | 
10 | C/C=C1\NC(=O)c2csc(n2)CNC(=O)C[C@@H](/C=C/CCSC(=O)CCCCCCC)OC(=O)[C@H](CC(C)C)NC1=O [Compound 1-11] | 160 | 10 | 6 | 9 | 80 | 100 | 90 | 800 | 5090 | 30 | no activity | < 100 | 
11 | C/C=C1\NC(=O)c2csc(n2)CNC(=O)C[C@@H](/C=C/CCSC(=O)CCCCCCC)OC(=O)[C@H](CSCC)NC1=O [Compound 1-12] | 60 | 100 | 100 | 100 | 1000 | 900 | 800 | 6000 | 1200 | 300 | no activity | < 100 | 
12 | C/C=C1\NC(=O)c2csc(n2)CNC(=O)C[C@@H](/C=C/CCSC(=O)CCCCCCC)OC(=O)[C@H](CCSC)NC1=O [Compound 1-10] | 200 | 20 | 10 | 20 | 100 | 100 | 1 | 1300 | 100 | 80 | no activity | < 100 | 
